# Source: ChEMBL document CHEMBL1201862, “PubChem BioAssay data set” (2004)
# The source made the active and inactive calls.
# How the values were obtained:
# [1] = target: DNA dC->dU-editing enzyme APOBEC-3G (Homo sapiens, UniProt Q9HC16); assay: Dose Response confirmation of small molecule APOBEC3G DNA Deaminase Inhibitors via a fluorescence-based single-stranded DNA deaminase assay. [Related pubchem assays (depositor defined):AID493012, AID493028]; assay type: functional
# [2] = target: DNA dC->dU-editing enzyme APOBEC-3A (Homo sapiens, UniProt P31941); assay: APOBEC3A DNA deaminase inhibitors, dose response, biochemical (AID 504722); assay type: functional
# Chain of DNA dC->dU-editing enzyme APOBEC-3A (P31941 whole entry): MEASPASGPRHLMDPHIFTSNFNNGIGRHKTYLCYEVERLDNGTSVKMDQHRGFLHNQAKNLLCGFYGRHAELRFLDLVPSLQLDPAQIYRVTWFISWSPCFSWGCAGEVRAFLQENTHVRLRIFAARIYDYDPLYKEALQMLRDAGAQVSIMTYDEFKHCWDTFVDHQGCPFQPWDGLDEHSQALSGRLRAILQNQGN
# [3] = target: Cytochrome P450 3A4 (Homo sapiens, UniProt P08684);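 note: CYP3A4 tested as one member of a cytochrome P450 panel screen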
# Chain of Cytochrome P450 3A4 (P08684 whole entry): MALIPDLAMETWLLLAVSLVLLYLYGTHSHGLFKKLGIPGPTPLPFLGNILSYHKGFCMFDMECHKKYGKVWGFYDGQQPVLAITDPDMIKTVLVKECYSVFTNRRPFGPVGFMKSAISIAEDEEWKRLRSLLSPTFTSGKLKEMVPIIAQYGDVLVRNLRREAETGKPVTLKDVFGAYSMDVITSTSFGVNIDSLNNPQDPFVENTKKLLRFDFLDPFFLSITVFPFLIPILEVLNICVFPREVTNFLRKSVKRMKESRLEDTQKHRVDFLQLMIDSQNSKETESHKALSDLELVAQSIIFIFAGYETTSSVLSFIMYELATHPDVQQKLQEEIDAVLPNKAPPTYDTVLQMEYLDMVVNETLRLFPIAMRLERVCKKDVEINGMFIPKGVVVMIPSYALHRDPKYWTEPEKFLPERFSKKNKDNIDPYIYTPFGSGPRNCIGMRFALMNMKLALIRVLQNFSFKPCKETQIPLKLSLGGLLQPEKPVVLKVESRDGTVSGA
# [4] = target: Cytochrome P450 2C19 (Homo sapiens, UniProt P33261); assay: Cytochrome panel assay with activity outcomes. Panel member name: p450-cyp2c19 Compounds with AC50 equal or less than 10 uM are considered active; assay type: functional; conditions: read-out: AC50
# Chain of Cytochrome P450 2C19 (P33261 whole entry): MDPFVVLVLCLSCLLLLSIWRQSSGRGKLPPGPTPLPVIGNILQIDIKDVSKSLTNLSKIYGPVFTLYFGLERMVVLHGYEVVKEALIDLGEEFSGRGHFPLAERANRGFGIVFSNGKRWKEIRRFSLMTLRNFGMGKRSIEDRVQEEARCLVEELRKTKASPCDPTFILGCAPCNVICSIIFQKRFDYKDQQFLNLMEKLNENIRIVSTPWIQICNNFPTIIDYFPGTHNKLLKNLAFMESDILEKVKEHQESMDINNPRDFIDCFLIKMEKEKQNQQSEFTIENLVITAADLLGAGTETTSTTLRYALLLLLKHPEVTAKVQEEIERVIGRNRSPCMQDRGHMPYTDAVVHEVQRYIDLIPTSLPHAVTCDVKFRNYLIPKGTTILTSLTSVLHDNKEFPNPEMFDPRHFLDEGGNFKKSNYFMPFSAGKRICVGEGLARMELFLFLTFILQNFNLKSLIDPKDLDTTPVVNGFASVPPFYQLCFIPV
# [5] = target: T1, Short transient receptor potential channel 4 (Mus musculus, UniProt Q9QUQ5); assay: mouse TRPC4 channel inhibitors, dose response, cell-based, HEK293 TRPC4/mu-opioid, Fluo-4 calcium (AID 434942); assay type: functional;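 note: potency of inhibitors blocking the TRPC4 calcium response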
# T1 sequence (Q9QUQ5 whole entry): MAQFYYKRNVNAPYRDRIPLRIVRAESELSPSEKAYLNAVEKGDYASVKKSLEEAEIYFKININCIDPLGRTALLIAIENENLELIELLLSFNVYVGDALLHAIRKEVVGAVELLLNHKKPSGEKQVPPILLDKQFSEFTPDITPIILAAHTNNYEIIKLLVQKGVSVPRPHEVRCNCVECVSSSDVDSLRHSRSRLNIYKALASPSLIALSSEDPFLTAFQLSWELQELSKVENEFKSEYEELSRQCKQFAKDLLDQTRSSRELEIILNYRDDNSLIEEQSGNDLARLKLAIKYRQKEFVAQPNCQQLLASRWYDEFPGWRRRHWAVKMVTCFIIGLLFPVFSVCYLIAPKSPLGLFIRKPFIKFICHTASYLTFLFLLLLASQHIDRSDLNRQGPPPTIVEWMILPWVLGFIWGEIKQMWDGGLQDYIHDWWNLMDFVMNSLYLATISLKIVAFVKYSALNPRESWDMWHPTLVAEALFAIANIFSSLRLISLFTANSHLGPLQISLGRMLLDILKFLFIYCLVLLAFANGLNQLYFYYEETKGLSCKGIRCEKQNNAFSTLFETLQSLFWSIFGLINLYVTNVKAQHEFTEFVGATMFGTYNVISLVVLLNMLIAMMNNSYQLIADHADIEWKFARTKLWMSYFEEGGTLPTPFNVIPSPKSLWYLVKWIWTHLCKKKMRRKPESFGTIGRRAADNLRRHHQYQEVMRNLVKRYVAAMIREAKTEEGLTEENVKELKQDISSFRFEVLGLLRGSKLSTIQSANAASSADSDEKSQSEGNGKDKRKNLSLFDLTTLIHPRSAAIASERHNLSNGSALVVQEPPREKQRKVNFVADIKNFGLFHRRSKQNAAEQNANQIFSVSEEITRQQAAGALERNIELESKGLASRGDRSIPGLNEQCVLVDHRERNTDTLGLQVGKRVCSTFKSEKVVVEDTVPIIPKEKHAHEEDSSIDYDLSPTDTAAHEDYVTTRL
# [6] = system: Vero; assay: cells; assay type: functional, cell-based; conditions: Chlorocebus sabaeus
# [7] = system: Vero; assay: cells; assay type: functional; conditions: Chlorocebus sabaeus
# [8] = target: T2, Cytochrome P450 1A2 (Homo sapiens, UniProt P05177);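 note: PubChem cytochrome P450 panel assay, CYP1A2 panel member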
# T2 sequence (P05177 whole entry): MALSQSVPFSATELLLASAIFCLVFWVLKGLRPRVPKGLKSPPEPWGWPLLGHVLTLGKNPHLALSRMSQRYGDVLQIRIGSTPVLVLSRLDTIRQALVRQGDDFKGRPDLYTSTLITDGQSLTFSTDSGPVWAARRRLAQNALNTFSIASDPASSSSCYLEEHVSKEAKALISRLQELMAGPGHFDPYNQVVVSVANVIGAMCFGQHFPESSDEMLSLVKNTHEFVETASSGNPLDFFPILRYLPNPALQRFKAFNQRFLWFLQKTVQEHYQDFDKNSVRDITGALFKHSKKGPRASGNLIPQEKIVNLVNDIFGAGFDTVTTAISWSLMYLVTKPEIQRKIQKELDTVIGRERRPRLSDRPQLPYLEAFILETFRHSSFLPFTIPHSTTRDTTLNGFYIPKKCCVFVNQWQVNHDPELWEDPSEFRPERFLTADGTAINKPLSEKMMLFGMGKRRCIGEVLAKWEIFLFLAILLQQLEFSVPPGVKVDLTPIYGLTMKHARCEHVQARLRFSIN
# [9] = system: HEK293; assay: NOD1 signaling inhibitors, primary screen, cell-based, luminescence, uHTS (AID 1578); assay type: functional; conditions: Homo sapiens
# [10] = target: Nucleotide-binding oligomerization domain-containing protein 2 (Homo sapiens, UniProt Q9HC29); assay: NOD2 signaling inhibitors, cell-based, luminescence, uHTS, HEK293 (AID 1566); assay type: functional
# Chain of Nucleotide-binding oligomerization domain-containing protein 2 (Q9HC29 whole entry, the tested form may be a part): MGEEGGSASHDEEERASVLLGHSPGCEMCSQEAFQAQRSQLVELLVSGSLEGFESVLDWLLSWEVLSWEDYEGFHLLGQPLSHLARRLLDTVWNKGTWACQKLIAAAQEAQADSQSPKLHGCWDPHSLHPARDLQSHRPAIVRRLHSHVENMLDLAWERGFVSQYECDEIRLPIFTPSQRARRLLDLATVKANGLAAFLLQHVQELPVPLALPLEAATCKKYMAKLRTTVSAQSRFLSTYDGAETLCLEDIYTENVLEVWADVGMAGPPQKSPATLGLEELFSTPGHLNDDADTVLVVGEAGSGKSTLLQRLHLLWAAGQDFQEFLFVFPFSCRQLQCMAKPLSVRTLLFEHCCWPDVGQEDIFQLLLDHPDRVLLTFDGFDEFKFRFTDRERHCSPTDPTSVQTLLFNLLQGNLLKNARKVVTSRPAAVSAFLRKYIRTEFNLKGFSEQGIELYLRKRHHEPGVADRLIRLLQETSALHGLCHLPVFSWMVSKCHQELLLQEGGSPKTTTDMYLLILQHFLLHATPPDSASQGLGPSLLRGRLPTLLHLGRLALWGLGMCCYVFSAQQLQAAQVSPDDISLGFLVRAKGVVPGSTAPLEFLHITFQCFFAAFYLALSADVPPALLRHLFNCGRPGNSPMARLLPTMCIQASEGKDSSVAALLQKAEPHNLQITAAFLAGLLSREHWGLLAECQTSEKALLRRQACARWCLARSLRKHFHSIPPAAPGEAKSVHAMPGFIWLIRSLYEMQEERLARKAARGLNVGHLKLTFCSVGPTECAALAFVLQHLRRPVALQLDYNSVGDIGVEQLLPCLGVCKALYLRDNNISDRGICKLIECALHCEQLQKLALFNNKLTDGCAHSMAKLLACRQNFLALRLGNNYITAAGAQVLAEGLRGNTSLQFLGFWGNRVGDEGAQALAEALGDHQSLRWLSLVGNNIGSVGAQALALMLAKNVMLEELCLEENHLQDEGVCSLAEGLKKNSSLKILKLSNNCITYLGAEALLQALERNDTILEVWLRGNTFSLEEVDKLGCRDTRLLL
# [11] = system: HEK293; assay: NOD2 signaling inhibitors in MDP-stimulated cells, cell-based, uHTS, luminescence (AID 2001); assay type: functional; conditions: Homo sapiens
# [12] = system: HEK293; assay: cells; assay type: functional, cell-based; conditions: Homo sapiens
# [13] = system: HEK293; assay: cells; assay type: functional, cell-based; conditions: Homo sapiens; remark: listed apart in the source
# Chain of DNA dC->dU-editing enzyme APOBEC-3G (Q9HC16 whole entry): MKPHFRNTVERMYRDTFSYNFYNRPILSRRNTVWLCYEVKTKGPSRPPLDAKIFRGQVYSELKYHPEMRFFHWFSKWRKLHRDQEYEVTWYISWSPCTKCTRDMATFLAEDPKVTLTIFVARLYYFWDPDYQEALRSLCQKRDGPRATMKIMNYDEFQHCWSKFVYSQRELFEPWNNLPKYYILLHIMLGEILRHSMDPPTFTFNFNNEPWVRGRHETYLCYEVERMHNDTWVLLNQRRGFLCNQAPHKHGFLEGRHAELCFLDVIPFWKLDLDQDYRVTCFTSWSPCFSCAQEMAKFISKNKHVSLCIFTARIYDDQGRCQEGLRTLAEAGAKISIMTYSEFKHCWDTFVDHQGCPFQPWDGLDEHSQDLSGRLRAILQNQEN
compound,measurement,setting,value
C=C(C)Cn1c(-c2cccc([N+](=O)[O-])c2)n[nH]c1=S,IC50,[1],5.5 µM (active)
same,IC50,[2],> 100 µM (inactive)
CCC(C)NC(=O)c1cnn2c(C)c3c(nc12)CCCC3 (configuration not stated),AC50,[3],inconclusive
same,AC50,[4],31.6 µM (inconclusive)
Cc1nn(C)c(C)c1Sc1ccc(Br)cc1,EC50,[5],4.73 µM (active)
Cc1ccc(C(C[N+](=O)[O-])c2c(-c3ccccc3O)n[nH]c2O)cc1 (configuration not stated),IC50,[6],> 25 µM (active)
same,CC50,[7],9.3 µM (active)
O=C(Nc1cccc(Cl)c1)N1CCN2C(=O)c3ccccc3C12c1ccccc1 (configuration not stated),EC50,[5],3.76 µM (active)
same,AC50,[8],3.16 µM (inconclusive)
CN1CCN(c2ncc3nc(-c4ccc(Cl)cc4)c(=O)n(Cc4cccs4)c3n2)CC1,AC50,[3],inconclusive
COc1ccc([N+](=O)[O-])cc1NCc1ccco1,EC50,[5],2.99 µM (active)
CC(=O)c1ccc(-n2c(C)c(C(C)=O)c3cc(O)ccc32)cc1,EC50,[9],> 20 µM (inactive)
same,EC50,[10],> 20 µM (inactive)
same,IC50,[11],2.7 µM (active)
same,IC50,[12],1.94 µM (active)
same,IC50,[13],> 20 µM (inactive)
c1ccn2cc(C34CC5CC(CC(C5)C3)C4)nc2c1,EC50,[5],6.68 µM (active)
